# In ChEMBL document CHEMBL1681724, “Discovery of potent and orally bioavailable heterocycle-based cannabinoid CB1 receptor agonists” (Bioorg Med Chem Lett, 2011):
# Assays:
# Cannabinoid receptor 1 [1] = molecular target: T1, Cannabinoid receptor 1 (Homo sapiens, UniProt P21554); assay: Agonist activity at human cannabinoid CB1 receptor expressed in CHO cells by luciferase reporter gene assay; assay type: functional, cell-based
# [2] = Aqueous solubility of the compound at pH 7.4; assay type: physicochemical; details: aqueous medium
# [3] = Cmax in rat at 5 mg/kg, po; assay type: ADME, organism-based; parameters: dose 5 mg/kg, route oral; details: in vivo
# [4] = AUC in rat plasma at 0.4 mg/kg, iv; assay type: ADME, organism-based; parameters: dose 0.4 mg/kg, route intravenous
# [5] = Apparent permeability from apical to basolateral side of human Caco2 cells; assay type: ADME, cell-based; details: Caco-2
# [6] = Tmax in rat at 5 mg/kg, po; assay type: ADME, organism-based; parameters: dose 5 mg/kg, route oral; details: in vivo
# [7] = Oral bioavailability in rat at 5 mg/kg; assay type: ADME, organism-based; details: in vivo
# [8] = Volume of distribution at steady state in rat at 0.4 mg/kg, iv; assay type: ADME, organism-based; parameters: dose 0.4 mg/kg, route intravenous; details: in vivo, read-out: Vdss
# [9] = Apparent permeability from basolateral to apical side of human Caco2 cells; assay type: ADME, cell-based; details: Caco-2
# [10] = Half life in rat at 0.4 mg/kg, iv; assay type: ADME, organism-based; parameters: dose 0.4 mg/kg, route intravenous; details: in vivo
# [11] = Clearance in rat at 0.4 mg/kg, iv; assay type: ADME, organism-based; parameters: dose 0.4 mg/kg, route intravenous; details: in vivo
# [12] = AUC in rat plasma at 5 mg/kg, po; assay type: ADME, organism-based; parameters: dose 5 mg/kg, route oral
# Cannabinoid receptor 2 = Cannabinoid receptor 2 (Homo sapiens, UniProt P34972); assay: Displacement of [3H]CP55940 from human cannabinoid CB2 receptor expressed in insect Sf9 cells
# [13] = Genotoxicity in Salmonella Typhimurium at 10^-4 M by Ames test; assay type: toxicity; details: salmonella enterica subsp. enterica serovar typhimurium, 100 µM
# Cannabinoid receptor 1 [14] = molecular target: T1, Cannabinoid receptor 1; assay: Displacement of [3H]CP55940 from human cannabinoid CB1 receptor expressed in insect Sf9 cells
# T1 sequence (P21554 whole entry): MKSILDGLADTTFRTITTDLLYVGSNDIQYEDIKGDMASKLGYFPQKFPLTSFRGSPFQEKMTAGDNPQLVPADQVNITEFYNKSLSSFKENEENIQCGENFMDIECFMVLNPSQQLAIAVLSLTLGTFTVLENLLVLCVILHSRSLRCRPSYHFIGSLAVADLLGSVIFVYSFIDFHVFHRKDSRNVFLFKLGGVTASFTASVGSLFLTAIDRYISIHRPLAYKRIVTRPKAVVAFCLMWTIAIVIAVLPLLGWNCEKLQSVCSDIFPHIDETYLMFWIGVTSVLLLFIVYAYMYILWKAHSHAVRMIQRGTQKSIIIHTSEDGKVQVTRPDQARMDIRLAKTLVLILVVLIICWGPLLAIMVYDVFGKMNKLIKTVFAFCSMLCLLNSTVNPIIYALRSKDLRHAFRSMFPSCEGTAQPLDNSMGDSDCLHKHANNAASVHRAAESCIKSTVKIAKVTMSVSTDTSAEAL
# Sequence of Cannabinoid receptor 2 (P34972 whole entry): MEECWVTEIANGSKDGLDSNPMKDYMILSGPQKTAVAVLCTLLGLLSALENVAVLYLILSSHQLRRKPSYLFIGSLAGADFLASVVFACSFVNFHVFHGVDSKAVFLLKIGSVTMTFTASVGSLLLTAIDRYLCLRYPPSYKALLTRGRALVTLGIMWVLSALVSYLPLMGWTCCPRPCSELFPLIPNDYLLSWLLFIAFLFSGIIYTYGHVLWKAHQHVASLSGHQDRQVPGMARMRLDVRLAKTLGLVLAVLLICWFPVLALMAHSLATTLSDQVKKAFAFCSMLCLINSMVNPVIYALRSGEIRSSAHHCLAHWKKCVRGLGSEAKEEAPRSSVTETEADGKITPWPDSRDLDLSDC
Structure (SMILES),EC50 (Cannabinoid receptor 1 [1]),solubility [2],other results
COCCN(C)Cc1nc(-c2cn(CC3CCOCC3)c3c(Cl)cccc23)ns1,0.0794 µM,< 1 µg/mL,–
Clc1cccc2c(-c3nsc(CN4CCCC4)n3)cn(CC3CCCCC3)c12,0.0158 µM,< 1 µg/mL,–
Clc1cccc2c(-c3nsc(CN4CCCC4)n3)cn(CC3CCOCC3)c12,–,< 1 µg/mL,–
CC(=O)N[C@@H]1CCN(Cc2nc(-c3cn(CC4CCOCC4)c4c(Cl)cccc34)ns2)C1,0.794 µM,16 µg/mL,–
OC[C@H]1CCCN1Cc1nc(-c2cn(CC3CCOCC3)c3c(Cl)cccc23)ns1,0.0158 µM,< 1 µg/mL,–
O=C(O)C1CCCN1Cc1nc(-c2cn(CC3CCOCC3)c3c(Cl)cccc23)ns1 (stereo not drawn),0.158 µM,108 µg/mL,–
NC(=O)CNC(=O)[C@@H]1CCCN1Cc1nc(-c2cn(CC3CCOCC3)c3c(Cl)cccc23)ns1,0.398 µM,15 µg/mL,–
CN(CCO)Cc1nc(-c2cn(CC3CCOCC3)c3c(Cl)cccc23)ns1,0.0794 µM,< 1 µg/mL,–
COCCN(Cc1nc(-c2cn(CC3CCOCC3)c3c(Cl)cccc23)ns1)S(C)(=O)=O,–,< 1 µg/mL,–
CS(=O)(=O)N(CCO)Cc1nc(-c2cn(CC3CCOCC3)c3c(Cl)cccc23)ns1,–,< 1 µg/mL,–
COCCN(C)Cc1nc(-c2cn(CC3CCS(=O)(=O)CC3)c3c(Cl)cccc23)ns1,0.2 µM,< 1 µg/mL,–
Clc1cccc2c(-c3noc(CN4CCCC4)n3)cn(CC3CCOCC3)c12,0.1 µM,< 1 µg/mL,–
CN(CC(N)=O)Cc1nc(-c2cn(CC3CCOCC3)c3c(Cl)cccc23)no1,–,21 µg/mL,Cmax [3]: 173 ng/mL; AUC [4]: 244 ng·h/mL; Papp A→B [5]: 8.3 ×10⁻⁶ cm/s; Tmax [6]: 1 h; bioavailability [7]: 53%; Vd [8]: 3 L/kg; Papp B→A [9]: 12.7 ×10⁻⁶ cm/s; half-life [10]: 1.4 h; clearance [11]: 28 mL/min/kg; AUC [12]: 1570 ng·h/mL; Ki (Cannabinoid receptor 2): 0.00631 µM; Activity [13]: Non-toxic; Ki (Cannabinoid receptor 1 [14]): 0.00398 µM
CN(CC(=O)NCCO)Cc1nc(-c2cn(CC3CCOCC3)c3c(Cl)cccc23)no1,–,88 µg/mL,–
CN(Cc1nc(-c2cn(CC3CCOCC3)c3c(Cl)cccc23)no1)[C@@H](CO)C(N)=O,0.251 µM,95 µg/mL,–
O=C(NCCO)C1CCN(Cc2nc(-c3cn(CC4CCOCC4)c4c(Cl)cccc34)no2)CC1,0.126 µM,115 µg/mL,–
COCC(=O)NCc1nc(-c2cn(CC3CCOCC3)c3c(Cl)cccc23)no1,–,4 µg/mL,–
CCNC(=O)NCc1nc(-c2cn(CC3CCOCC3)c3c(Cl)cccc23)no1,2 µM,< 1 µg/mL,–
CN(C)S(=O)(=O)N(C)Cc1nc(-c2cn(CC3CCOCC3)c3c(Cl)cccc23)no1,0.0316 µM,< 1 µg/mL,–
CC(C)N(CCO)Cc1csc(-c2c(CC3CCOCC3)[nH]c3c(Cl)cccc23)n1,≤ 0.1 µM,> 10 µg/mL,bioavailability [7]: 4%
